Assay results: patent publication US20250090437A1, “COSMETIC COMPOUNDING AGENT, COSMETIC AND PRODUCTION METHOD THEREOF” (MIYOSHI OIL & FAT CO., LTD., priority 2019, published 2025)

Columns and labels:
[1] = Sensory evaluation on healthy hair after using organic ammonium salt; design: species or system human; details: healthy hair, 80 wt % aqueous solution
Method: (§1) Here, an 80 wt % aqueous solution(s) of each of the compounds B11, B12, B23, B26 and B27 (content in terms of anhydride in the cases of the compounds B11, B12 and B23) were prepared and used as samples. Next, one minute was spent in evenly applying 10.0 g of each sample to a bundle of the healthy hairs weighing about 10 g, using a brush; the bundle of the healthy hairs was then left for 5 min. After leaving it for 5 min, the bundle of the healthy hairs was rinsed with a hot water of 40° C. for 30 sec, and evaluated was a finger-combing capability at the time of performing washing. The hair bundle that had been rinsed was then dried with a towel and further subjected to air drying for a day, followed by evaluating items such as flexibility, finger-combing capability, texture, elasticity/resilience (feeling by bare hands), volume increase (visual evaluation), cohesiveness, moist feeling, surface smoothness, non-stickiness (feeling by bare hands) and gloss (visual evaluation), from the perspective of superiority or inferiority to a test hair bundle(s) uncoated with the sample.

[2] = Sensory evaluation on damaged hair after using organic ammonium salt; design: species or system human; details: damaged hair, 80 wt % aqueous solution
Method: as §1, with “damaged” for “healthy”, “as” for “as flexibility, finger-combing capability, texture,”, “hands),” for “hands), volume increase (visual evaluation),”, “cohesiveness,” for “cohesiveness, moist feeling,”, “smoothness” for “smoothness, non-stickiness (feeling by bare hands)”, “non-waviness,” for “gloss (visual evaluation),”

[3] = Sensory evaluation on healthy hair after using shampoo agent containing organic ammonium salt; design: species or system human; details: shampoo agent containing 3.0% by mass of the compound; treated 10 times
Method: Next, the mixture was cooled to a temperature of 30° C. or lower, and a purified water of an evaporated amount was then added thereto so that the whole hair treatment composition would be 100% by mass, followed by uniformly mixing them so as to obtain a hair treatment composition(s). The pH level of the hair treatment composition was adjusted to pH 6.0 by adding a citric acid or sodium hydroxide.
About 5 g of the healthy hair was taken and dipped into 350 ml of a seven-time dilute aqueous solution of each of the abovementioned hair treatment compositions (shampoo agents) at 35 to 40° C. so as to be washed. The healthy hair was then subjected to a rinsing treatment five times using 500 ml of a warm water of 35 to 40° C., followed by drying the same at 80° C., and then performing air drying at 25° C. Such series of treatment involving hair washing, rinsing and drying was repeated 10 times to then evaluate a cohesiveness of the hair, a moist feeling of the hair, a gloss of the hair, a surface smoothness of the hair and a non-stickiness on the surface of the hair, after performing air drying.

[4] = Water retention property test 1; format: physicochemical; details: 80 wt % aqueous solution
Method: A moisture rate after 24 hours was again measured (post-test moisture rate: B), followed by using the formula below to calculate a rate of reduction in moisture so as to evaluate the water retention property. • Pre-test moisture rate: A (%) • Post-test moisture rate: B (%)

[5] = Water retention property test 3 (long term); format: physicochemical; details: 80 wt % aqueous solution, 40° C. and 25% RH
Method: In a water retention property test 3, an 80 wt % aqueous solution of each of the compounds C8, C11, C62, C63 and C64 was prepared, followed by using a Karl Fischer moisture meter to confirm that a moisture rate was 20.0 wt %. Next, 1.0 g of each of these samples was added to a screw tube, and this screw tube, while remaining unsealed, was then left to stand still in a thermo-hygrostat set to 40° C. and 25% RH. […] In addition, the water retention property was evaluated by calculating an amount of moisture reduction per hour (mg/h) based on each amount of moisture reduction (mg).

[6] = Surface resistance measurement of organic ammonium salt; details: 0.7 g applied to polyurethane artificial leather; liquid state; uncoated greater than 4×10^11Ω
[7] = Solubility of active ingredient (gallic acid) in aqueous solution of the compound; details: in 1.8 g compound + 8.2 g ion-exchange water
[8] = unsealed, 24 hours at 40° C. and 25% RH

Pre-test moisture rate ([4]; before the test (Karl Fischer)): 20.0% | Post-test moisture rate [4, 8]: 18.0% | Rate of reduction in moisture [4, 8]: 10.0% | Amount of moisture reduction in 120 to 144 h ([5]; unsealed): 29.4 mg | Amount of moisture reduction in 144 to 168 h ([5]; unsealed): 30.0 mg | Amount of moisture reduction in 168 to 192 h ([5]; unsealed): 13.1 mg | Moisture rate after 144 h ([5]; unsealed): 5.4% | Moisture rate after 168 h ([5]; unsealed): 1.9% | Moisture rate after 192 h ([5]; unsealed): 0.3% | Amount of moisture reduction per hour ([5]; 120~144 h): 1.2 mg/h | Amount of moisture reduction per hour ([5]; 144~168 h): 1.3 mg/h | Amount of moisture reduction per hour ([5]; 168~192 h): 0.5 mg/h | Surface resistance value [6]: 5×10^8 Ω | Amount of dissolution Gallic acid [7]: 0.08 g
SMILES: OCC(O)CO [Compound A52, glycerin, reference compound]
After air drying: Cohesiveness of hair [1]: Δ~X | After air drying: Elasticity/Resilience [1]: Δ~X | After air drying: Finger-combing capability [1]: Δ~X | After air drying: Flexibility [1]: Δ~X | After air drying: Gloss of hair [1]: Δ~X | After air drying: Moist feeling [1]: Δ~X | After air drying: Non-stickiness of hair surface [1]: Δ~X | After air drying: Smoothness of hair surface [1]: Δ~X | After air drying: Texture [1]: Δ~X | After air drying: Volume increase [1]: Δ~X | When washing: Finger-combing capability ([1]; versus uncoated hair bundle): ◯ | After air drying: Cohesiveness of hair [2]: Δ~X | After air drying: Elasticity/Resilience [2]: Δ~X | After air drying: Smoothness of hair surface [2]: Δ~X | After air drying: Suppression of hair waviness [2]: Δ~X | When washing: Finger-combing capability [2]: Δ~X | Sensory evaluation of healthy hair after shampoo agent (cohesiveness, moist feeling, gloss, smoothness, non-stickiness) [3]: inferior in general
